{"source": "patent US12129487B2", "about": "“Method to obtain lymphoid progenitors” (INSERM (Institute National de la Santé et de la Recherche …, priority 2017, dated 2024)", "key": {"[1]": {"tested_on": "circulating HSPCs", "text": "One hour later, peripheral blood was harvested, analyzed by flow cytometry and tested for CFU-C assays."}, "[2]": {"tested_on": "MPPs", "assay": "Impact of CXCL12 concentrations on lymphoid commitment of purified MPPs in vitro", "type": "cell-based, mouse", "settings": "WT MPPs, CXCL12 1 to 1,000 ng/ml at start, day 4 (FIG. 3)", "protocol": "Purified MPPs were seeded at 450 cells into a 96-well tissue culture plate in DMEM medium supplemented with 10% FBS, 1% penicillin, and the following cytokines: mouse SCF (50 ng/mL), mouse IL-3 (10 ng/mL), human IL-6 (10 ng/mL), mouse IL-7 (5 ng/mL), and human Flt3 (5 ng/mL). Different concentrations of CXCL12 ranging from 1 to 1,000 ng/ml were added at the start of the culture. Cells were cultured at 37° C. in a humidified atmosphere containing 5% CO2, and were harvested after 4 days of culture to analyze HSPCs by flow cytometry."}, "[3]": {"tested_on": "LSK SLAM (HSCs) or MPPs", "assay": "In vitro differentiation assay of purified LSK SLAM or MPPs in cytokine-supplemented feeder-free media", "type": "cell-based, mouse"}}}
{"compound": "c1cc(CN2CCCNCCNCCCNCC2)ccc1CN1CCCNCCNCCCNCC1", "note": "[AMD3100]", "values": [{"measurement": "absolute numbers of circulating HSPCs", "setting": "[1]; WT mice, single intra-peritoneal injection (5 mg/kg), one hour after injection, blood", "value": "significant increase"}, {"measurement": "absolute numbers of HSPCs in the blood", "setting": "[1]; mutant (Cxcr4 1013-bearing) mice, single intra-peritoneal injection, one hour, reaching that of untreated WT mice", "value": "increased"}]}
{"compound": "CXCL12: C-X-C motif chemokine 12, natural ligand of CXCR4, added to the culture medium", "values": [{"measurement": "myeloid-biased MPP2 proportions and numbers", "setting": "[2]", "value": "decrease"}, {"measurement": "myeloid-biased MPP3 proportions and numbers", "setting": "[2]", "value": "decrease"}, {"measurement": "proportions and absolute numbers of MPPs", "setting": "[2]", "value": "significant and dose-dependent increase"}, {"measurement": "proportions and absolute numbers of lymphoid-biased MPP4", "setting": "[2]", "value": "significant and dose-dependent increase"}, {"measurement": "appearance of LMPPs", "setting": "[3]; 100 ng/mL added at start of culture of MPPs, regardless of Cxcr4 genotype, less pronounced among mutant cells", "value": "promoted the appearance of LMPPs"}, {"measurement": "proportions and numbers of Cxcr4 1013-bearing MPPs", "setting": "[3]; 100 ng/mL added at start of culture, mutant cells, days 2 and 4 (FIGS. 1 and 2)", "value": "further enhanced"}]}
